“And” between values parts separate entries of the source, which are not always exact repeats. Equal entries are not always repeated. Records with an inconclusive call do not appear. The source made the active and inactive calls.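 Rule for the calls: active = inhibition with a half-effect concentration no higher than twice the top valid dose tested; inconclusive = flat fit inhibiting 30 to 70%, or a poor fit; inactive = effect in the wrong direction, plus the rest.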
Tests used:
[1] = system: C. neoformans, alamar blue, sorbitol counter-screen, 24 h; assay: C. neoformans growth inhibition with sorbitol, dose response, counter-screen for C. neoformans cell wall antifungals, alamar blue, sorbitol added, dry powder (AID 743123)
[2] = as above; details: C. neoformans, alamar blue, sorbitol counter-screen, 24 h; at 35 µM (top of the series)

Row | SMILES | AC50 [1] | activity change, negative = inhibition [2]
1 | COC(=O)C1=C(C)N(Cc2ccc(F)cc2)C(=S)NC1c1cccc(F)c1 (stereo not given) | 24.2 µM | –
2 | S=c1[nH]c2ccccc2n1CCOc1ccc(Cl)cc1 | 14.7 µM | –
3 | Cc1ccc(OCCn2cnc3ccccc32)cc1 | 7.76 µM | –
4 | Cc1ccccc1OCCn1c(=S)[nH]c2ccccc21 | 9.99 µM | –
5 | COC(=O)C1=C(C)N(Cc2ccccc2)C(=S)NC1c1ccc(Br)cc1 (stereo not given) | 9.1 µM | –
6 | Cc1ccc(OCCn2c(=S)[nH]c3ccccc32)cc1 | 10.9 µM | –
7 | Cc1ccc2c(c1)[nH]c(=S)n2CCOc1ccccc1 | 27.1 µM | –
8 | Fc1ccccc1OCCn1c(=S)[nH]c2ccccc21 | 36.2 µM | –
9 | S=c1[nH]c2cccc(Cl)c2n1CCOc1ccccc1 | 11.6 µM | –
10 | CCOc1ccc(OCCn2c(=S)[nH]c3ccccc32)cc1 | 24.1 µM | –
11 | Cc1cccc(OCCn2c(=S)[nH]c3cc(C(F)(F)F)ccc32)c1 | – | -32% (inactive)
12 | Cc1ccc(OCCn2c(=S)[nH]c3ccccc32)c(C(C)C)c1 | 8.54 µM and 9.18 µM | –
13 | CCOC(=O)c1c(-c2ccc(C(C)(C)C)cc2)csc1NC(=O)CN1CCN(C)CC1 | 13.7 µM | –
14 | S=c1[nH]c2ccccc2n1CCOc1ccccc1 | 28.5 µM | –
15 | COC(=O)C1=C(C)N(Cc2ccc(Br)cc2)C(=S)NC1c1ccc(OC)cc1 (stereo not given) | 23.9 µM | –
16 | CCOC(=O)c1c(NC(=O)CN2CCN(C)CC2)sc(C)c1-c1ccc(C)cc1 | 16.9 µM | –
17 | c1ccc(OCCn2cnc3ccccc32)cc1 | – | -38.4% (inactive)
18 | CCOC(=O)c1c(-c2ccc(F)cc2)csc1NC(=O)CN1CCN(CC)CC1 | 36.1 µM | –
19 | CCOC(=O)c1c(-c2ccc(OC)cc2)csc1NC(=O)CN(C)CC(=O)N(C)C | 13.9 µM | –
20 | CCOC(=O)c1c(-c2ccc(C(C)(C)C)cc2)csc1NC(=O)CN1CCN(CC)CC1 | 14.6 µM | –
21 | CCOC(=O)c1c(NC(=O)CNCCN(C)C)sc(C)c1-c1ccccc1 | 1.09 µM | –
22 | COC(=O)C1=C(C)N(Cc2ccc(Cl)cc2)C(=S)NC1c1ccc(Br)cc1 (stereo not given) | 3.11 µM | –
23 | Cc1ccc(OCCn2c(C)nc3ccccc32)cc1 | – | -59.3% (inactive)
24 | CCOC(=O)c1c(-c2ccc(F)cc2)csc1NC(=O)CN1CCN(C)CC1 | – | -15.2% (inactive)
25 | O=c1[nH]c2ccccc2n1CCOc1ccccc1 | – | -36.6% (inactive)
26 | Cc1ccc(OCCn2c(SCCO)nc3ccccc32)c(C(C)C)c1 | 7.62 µM | –
27 | CCOC(=O)c1c(-c2ccc(-c3ccccc3)cc2)csc1NC(=O)CNCCN(C)C | 19.9 µM | –
28 | Cc1ccc(C(C)C)c(OCCn2c(=S)[nH]c3ccccc32)c1 | 10.1 µM | –
29 | Fc1cccc2c1[nH]c(=S)n2CCOc1ccccc1 | 31.9 µM | –
30 | COC(=O)C1=C(C)N(Cc2ccc(Br)cc2)C(=S)NC1c1ccc(F)cc1 (stereo not given) | 5.99 µM | –
